Measurements taken from US6517871B1, “Bioenhanced formulations comprising eprosartan in oral solid dosage form” (SmithKline Beecham Corporation, priority 1998, dated 2003).
Structures can show the parent of a compound that is named as a salt.

Experiments:
clinical = settings: human, in vivo
Excerpt: Eprosartan is an amphiphilic molecule containing two acidic (allylic carboxylic acid and phenylic carboxylic acid) and one basic (imidazole) functional groups. At lower pH (below 2) the imidazole nitrogen will be protonated (form ii). As the pH increases, the allylic carboxylic group will be deprotonated (form iii). […] As the pH increases further, the phenylic carboxylic group will be depronated (form iv) followed by the deprotonation of the protonated imidazole group (form v). […] According to the pH-partitioning theory of absorption, only the unionized species (form ii) or the ion-neutral species (form iii) will be absorbed by passive diffusion. […] The time to maximum concentration is between 1 to 2.5 hours in fasted state and 2.5-4 hours in fed state. […] Additionally, since the commercial form of the drug is as its mesylate, which becomes dihydrated during the formulation process, high dose tablets (e.g., 600 mg tablets weigh 1,200.0 mg) may be difficult to swallow.

[1] = pH-solubility profiles (FIG. 2); type: physicochemical; settings: pH >4.0 to 5.5, where the enteric coat starts to release

mean absolute bioavailability (clinical)	time to maximum concentration (clinical) [h]	drug solubility at initiation pHs [1]	bioavailability (clinical) [%]	Structure (SMILES)
approximately 13%	1 to 2.5	negligible		CCCCc1ncc(/C=C(\Cc2cccs2)C(=O)O)n1Cc1ccc(C(=O)O)cc1 [eprosartan, (E)-α-[2-n-butyl-1-[(4-carboxyphenyl)methyl]-1H-imidazol-5-yl]methylene-2-thiophenepropionic acid]
			~13	CCCCc1ncc(/C=C(\Cc2cccs2)C(=O)O)n1Cc1ccc(C(=O)O)cc1 [eprosartan mesylate, (E)-α-[2-n-Butyl-1-[(4-carboxyphenyl)methyl]-1H-imidazol-5-yl]methylene-2-thiophenepropionic acid monomethanesulfonate]
